Molecules are shown by their SMILES.

The target of one experiment is T1, human (h)TLR8 (Homo sapiens, UniProt Q9NR97).
T1 construct: host or cells: HEK-293 reporter cells
T1 sequence (Q9NR97 27-1041): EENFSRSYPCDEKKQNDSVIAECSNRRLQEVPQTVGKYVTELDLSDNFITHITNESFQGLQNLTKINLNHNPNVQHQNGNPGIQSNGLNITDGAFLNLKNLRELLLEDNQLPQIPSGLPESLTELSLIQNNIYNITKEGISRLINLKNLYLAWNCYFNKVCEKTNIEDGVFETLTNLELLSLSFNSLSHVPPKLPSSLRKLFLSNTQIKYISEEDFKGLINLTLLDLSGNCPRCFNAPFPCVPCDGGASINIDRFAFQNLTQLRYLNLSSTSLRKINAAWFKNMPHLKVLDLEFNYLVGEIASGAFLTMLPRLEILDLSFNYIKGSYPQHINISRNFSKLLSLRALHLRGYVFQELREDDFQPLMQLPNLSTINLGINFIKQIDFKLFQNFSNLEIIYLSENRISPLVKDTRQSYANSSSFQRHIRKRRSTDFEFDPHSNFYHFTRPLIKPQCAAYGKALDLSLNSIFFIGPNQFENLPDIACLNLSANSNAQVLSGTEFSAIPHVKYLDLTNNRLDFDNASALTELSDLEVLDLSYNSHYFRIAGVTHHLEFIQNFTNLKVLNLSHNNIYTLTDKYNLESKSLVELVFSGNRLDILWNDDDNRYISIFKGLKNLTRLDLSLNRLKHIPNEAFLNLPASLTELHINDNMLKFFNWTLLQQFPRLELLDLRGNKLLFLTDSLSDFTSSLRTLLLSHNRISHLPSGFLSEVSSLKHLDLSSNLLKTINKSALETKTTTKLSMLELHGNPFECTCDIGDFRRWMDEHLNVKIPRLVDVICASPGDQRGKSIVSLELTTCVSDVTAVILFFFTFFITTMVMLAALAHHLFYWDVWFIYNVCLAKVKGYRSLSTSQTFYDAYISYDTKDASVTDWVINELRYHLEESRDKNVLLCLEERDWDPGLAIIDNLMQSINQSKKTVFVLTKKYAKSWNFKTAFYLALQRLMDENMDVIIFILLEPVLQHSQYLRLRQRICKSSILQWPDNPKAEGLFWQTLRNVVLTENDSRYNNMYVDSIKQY
The experiment in a line: PRR ligand screening (InvivoGen) in reporter cell lines. It counts as cell-based. To be noted: HEK reporter cells; % activity vs positive control. As to the method:
FIGS. 3A-3E. PVP-179 is a TLR8 agonist. FIG. 3A: PVP-179 was sent to InvivoGen for PRR ligand screening service. Various cells lines were utilized to screen for PVP-179-induced ([…]) activation of TLRs, NOD1/2, RIG-I/MDA-5, Dectin-1 or Mincle receptor. The heat-map depicts percentage activity compared to the positive control for each receptor. FIG. 3B: PVP-179 induced activity (% activity compared to the positive control: CL075 at 1 μg/mL) in HEK-293 cells specifically expressing hTLR8. In brief, these cells have an NF-κB/AP-1-inducible secreted embryonic alkaline phosphatase (SEAP) reporter gene which allows monitoring of signaling via TLR8. After incubation for 16-24 hours, supernatant harvested from the cells is mixed with media containing SEAP-substrate and the optical density (OD) is measured at 650 nm using a spectrophotometer. FIG. 3C: As in FIG. 3B, HEK cells specifically expressing hTLR2, hTLR7, or hTLR8, in addition to the HEK-Null cell line carrying only the reporter gene, were stimulated with the indicated concentrations of PVP-179. […] PVP-179 activity is expressed as a percentage of NF-κB induced in the cells stimulated with TNF (positive control for each cell line). […] The supernatants were harvested after 20-24 hours and SEAP production (to assess NF-κB activity) was measured using QUANTIBlue assay. […]

Experiment [1] relates to human monocyte derived macrophages. The experiment in a line: TNF ELISA in human monocyte derived macrophages. It counts as cell-based. Particulars: 20-24 hours. As for the experimental part: FIGS. 4A-4D. PVP-179 activates human macrophages and dendritic cells. FIGS. 4A-4B: Murine mononuclear cells were isolated from bone marrow and induced differentiation into dendritic cells (with GM-CSF and IL-4). After 5 days of culturing, these bone-marrow-derived dendritic cells (BMDCs) were stimulated with PVP-179 or MPLA for 18 hours at indicated concentrations. The supernatants were analyzed via ELISA where each dot in the graph represents the mean production of mTNF (FIG. 4A) and mIL-6 (FIG. 4B). N=6 for PVP-179, N=3 for MPLA. Two-way Anova was performed to determine statistical significance. The comparisons shown are compared to control group (0 M PVP-179). FIGS. 4C-4D: PBMCs were isolated from blood of adult human donors. CD14+ monocytes were specifically isolated from the PBMCs and were then cultured in 10% autologous plasma and induced to differentiate into macrophages with M-CSF (FIG. 4C), or dendritic cells with GM-CSF and IL-4 (FIG. 4D). After 5 days, cells were harvested from each differentiated cell type (macrophages: Mφ; dendritic cells: MoDCs) and a 96-well plate was setup with 100,000 cells/well. Cells were then stimulated with indicated concentrations of PVP-179 or R848 (33 μM) or LPS (100 ng/mL). After 20-24 hours of incubation, supernatants were harvested and applied to TNF ELISA. N=2 donors.
In general terms: An ELISA detects its analyte on a solid surface through an enzyme-linked reagent.

As for `CCCCn1c(/N=C/c2nc3ccccc3n2C)nc2ccccc21` [PVP-179], at human (h)TLR8, the “activity among all TLRs and other receptors tested” value was “maximal activity toward human (h)TLR8”. For the same compound, the TNF-inducing activity result in experiment [1] is “concentration-dependent activity”.

Source of the values: patent US20250041278A1, “TLR8 AGONIST FOR MODULATING IMMUNE RESPONSE” (The Children's Medical Center Corporation, priority 2021, published 2025).
